6 molecules from patent US20230257376A1, “ROCK INHIBITOR, AND PREPARATION METHOD THEREFOR AND USE THEREOF” (WUHAN LL SCIENCE AND TECHNOLOGY DEVELOPMENT CO., LTD., priority 2020, published 2023) can be followed below.

Series [1] can be described thus: In vitro metabolic stability, human liver microsome incubation. Type of series: in vitro ADME. The conditions noted are these: liver microsomes, 1 mg/mL protein, 37° C., read-out: T1/2 in human liver microsome. The method, then: (§1) The in vitro metabolic stability of the compounds disclosed herein was determined through incubation of liver microsomes of various species. A proper amount of test compound was added into a liver microsome reaction system (1 mg/mL liver microsome protein, 25 U/mL glucose-6 phosphate dehydrogenase, 1 mM NADP, 6 mM D-glucose 6-phosphate and 5 mM MgCl2), and then the mixture was incubated in a water bath kettle at 37° C. to start reaction. At each time point, 100 μL of the reaction liquid was added into a centrifuge tube containing 400 μL of internal standard working solution (containing a 200 ng/mL solution of dexamethasone, diclofenac, tolbutamide and labetalol in acetonitrile) precooled at 0° C. so as to stop the reaction, and the mixture was then centrifuged at 10,000 g for 10 min at 4° C. The supernatant was collected for LC-MS assay so as to obtain the values of in vitro metabolic half-life of the test compounds in liver microsomes of various species.

In another series the target is T1, ROCK1 kinase (Homo sapiens, UniProt Q13464).
T1 construct: purchased Invitrogen
T1 sequence (Q13464 whole entry): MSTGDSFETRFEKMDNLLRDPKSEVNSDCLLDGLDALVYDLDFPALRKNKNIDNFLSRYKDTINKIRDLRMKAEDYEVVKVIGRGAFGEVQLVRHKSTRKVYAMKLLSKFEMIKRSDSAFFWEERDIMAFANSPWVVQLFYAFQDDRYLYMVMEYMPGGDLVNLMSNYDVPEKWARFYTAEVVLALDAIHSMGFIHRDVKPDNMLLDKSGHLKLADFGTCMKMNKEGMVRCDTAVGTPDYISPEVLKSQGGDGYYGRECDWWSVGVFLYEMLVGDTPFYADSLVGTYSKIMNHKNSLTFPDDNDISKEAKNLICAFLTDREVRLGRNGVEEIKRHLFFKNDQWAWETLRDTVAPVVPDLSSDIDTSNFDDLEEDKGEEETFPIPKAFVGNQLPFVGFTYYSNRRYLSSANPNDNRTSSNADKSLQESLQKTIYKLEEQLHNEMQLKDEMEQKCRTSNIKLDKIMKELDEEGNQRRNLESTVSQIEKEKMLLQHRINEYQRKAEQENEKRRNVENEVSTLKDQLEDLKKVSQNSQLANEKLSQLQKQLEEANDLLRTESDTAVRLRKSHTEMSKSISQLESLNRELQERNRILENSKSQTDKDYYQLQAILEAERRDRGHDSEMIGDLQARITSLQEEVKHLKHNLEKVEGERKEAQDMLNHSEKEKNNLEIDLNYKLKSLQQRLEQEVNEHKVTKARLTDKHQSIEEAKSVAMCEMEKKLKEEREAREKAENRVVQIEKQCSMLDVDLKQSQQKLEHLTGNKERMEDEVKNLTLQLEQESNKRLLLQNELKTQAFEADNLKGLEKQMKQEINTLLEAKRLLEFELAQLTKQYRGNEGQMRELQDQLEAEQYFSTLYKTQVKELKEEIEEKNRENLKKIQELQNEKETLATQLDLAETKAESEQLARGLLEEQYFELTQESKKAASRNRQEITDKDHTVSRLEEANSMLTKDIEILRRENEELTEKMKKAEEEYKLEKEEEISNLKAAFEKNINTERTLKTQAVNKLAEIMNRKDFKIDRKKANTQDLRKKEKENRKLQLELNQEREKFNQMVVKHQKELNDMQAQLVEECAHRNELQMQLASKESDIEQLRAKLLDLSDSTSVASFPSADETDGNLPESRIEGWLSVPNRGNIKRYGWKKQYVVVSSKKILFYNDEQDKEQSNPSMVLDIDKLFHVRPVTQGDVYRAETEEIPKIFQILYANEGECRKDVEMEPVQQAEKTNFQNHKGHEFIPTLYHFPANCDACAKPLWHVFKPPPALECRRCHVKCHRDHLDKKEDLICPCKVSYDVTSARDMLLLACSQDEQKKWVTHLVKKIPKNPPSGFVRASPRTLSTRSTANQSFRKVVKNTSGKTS
Put plainly: In vitro evaluation of ROCK1 kinase selectivity (HTRF KinEASE-STK time-resolved fluorometric assay). Type of series: biochemical. The conditions noted are these: ROCK1 kinase 0.4 ng/μL, ATP 3.53 μM. In outline: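 HTRF KinEASE-STK assay with ROCK1 at 0.4 ng/μL final, preincubated with compound (1% DMSO) 0.5 h at room temperature. Reaction ran 2 h at room temperature with 3.53 μM ATP and 1 μM biotinylated STK-substrate 2, then detection via STK antibody-cryptate/streptavidin-XL665 after ~1 h.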

Series [2] in a line: In vitro cytotoxicity assay in HepG2 cells using the CCK-8 method. In kind it is cell-based. The conditions noted are these: human. As for the experimental part: In vitro cytotoxicity assay for the compounds disclosed herein was performed in HepG2 cells using the CCK-8 method. HepG2 cells (Beina Bio) in the logarithmic growth phase were collected, the concentration of cell suspension was adjusted, and then the cells were plated on a 96-well cell culture plate at 50,000 cells/well. The cells were then incubated overnight in a cell incubator (5%, 37° C.), and after 80-90% cell confluence was achieved, test compound at each concentration gradient or vehicle (DMSO) was added after medium change. The resulting mixture was incubated in the cell incubator (5%, 37° C.) for 48 h. After the treatment, the medium in the plate was discarded. The plate was washed twice with PBS, added with CCK-8 working solution (Beyotime) at 100 μL per well, and then incubated at 37° C. for 1.5 h in the dark. Absorbance at OD450 nm mil was measured for each well on a microplate reader, and CC50 value of each compound was analyzed and calculated.

The target of the next series is T2, ROCK2 kinase (Homo sapiens, UniProt O75116).
T2 construct: purchased Invitrogen PV3759
T2 sequence (O75116 whole entry): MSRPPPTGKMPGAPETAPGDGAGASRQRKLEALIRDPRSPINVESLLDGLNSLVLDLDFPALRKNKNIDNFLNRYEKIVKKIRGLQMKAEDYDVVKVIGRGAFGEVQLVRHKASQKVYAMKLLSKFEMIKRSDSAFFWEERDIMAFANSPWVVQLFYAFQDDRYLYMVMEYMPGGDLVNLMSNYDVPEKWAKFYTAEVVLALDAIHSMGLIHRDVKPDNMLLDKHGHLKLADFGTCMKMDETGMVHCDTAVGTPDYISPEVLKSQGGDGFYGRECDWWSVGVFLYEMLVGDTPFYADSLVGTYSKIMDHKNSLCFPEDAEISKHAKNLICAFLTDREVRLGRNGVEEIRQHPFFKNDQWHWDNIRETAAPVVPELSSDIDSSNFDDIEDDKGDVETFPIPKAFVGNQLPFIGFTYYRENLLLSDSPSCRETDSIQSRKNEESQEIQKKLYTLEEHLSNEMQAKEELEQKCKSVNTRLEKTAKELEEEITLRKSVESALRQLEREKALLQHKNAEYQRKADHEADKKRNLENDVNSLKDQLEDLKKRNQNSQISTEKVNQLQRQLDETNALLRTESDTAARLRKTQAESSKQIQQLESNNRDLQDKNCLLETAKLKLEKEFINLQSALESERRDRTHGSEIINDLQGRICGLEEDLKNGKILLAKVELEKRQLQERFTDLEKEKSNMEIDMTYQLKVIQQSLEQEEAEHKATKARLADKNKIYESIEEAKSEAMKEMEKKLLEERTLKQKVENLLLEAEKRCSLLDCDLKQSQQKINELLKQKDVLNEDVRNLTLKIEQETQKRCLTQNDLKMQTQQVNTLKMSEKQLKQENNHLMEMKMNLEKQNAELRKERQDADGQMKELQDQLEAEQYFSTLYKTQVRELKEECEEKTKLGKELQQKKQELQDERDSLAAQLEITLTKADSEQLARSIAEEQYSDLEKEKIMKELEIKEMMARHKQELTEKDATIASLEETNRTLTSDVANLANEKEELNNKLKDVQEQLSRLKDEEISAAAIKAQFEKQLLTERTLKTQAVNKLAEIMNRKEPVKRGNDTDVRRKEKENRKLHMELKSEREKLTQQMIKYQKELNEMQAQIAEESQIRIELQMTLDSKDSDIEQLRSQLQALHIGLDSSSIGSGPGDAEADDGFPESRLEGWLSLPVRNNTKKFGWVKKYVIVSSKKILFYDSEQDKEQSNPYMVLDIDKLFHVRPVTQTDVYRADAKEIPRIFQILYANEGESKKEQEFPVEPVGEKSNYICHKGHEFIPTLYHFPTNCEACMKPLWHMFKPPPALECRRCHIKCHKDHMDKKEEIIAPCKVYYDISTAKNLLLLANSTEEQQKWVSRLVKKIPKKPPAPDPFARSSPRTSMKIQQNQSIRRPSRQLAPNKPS
Briefly: In vitro evaluation of ROCK2 kinase activity (HTRF KinEASE-STK time-resolved fluorometric assay). To be noted: ROCK2 kinase 0.4 ng/μL, ATP 6.739 μM. Type of series: biochemical. In a few lines:
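Recombinant kinase (0.4 ng/μL final) preincubated 0.5 h at RT with compound (1% DMSO), then 2 h with 6.739 μM ATP and 1 μM biotinylated STK substrate 2 (final). HTRF readout via STK antibody-cryptate/streptavidin-XL665 after ~1 h; buffer 5 mM MgCl2, 1 mM DTT.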

Series [3] can be described thus: In vitro metabolic stability, rat liver microsome incubation. Type of series: in vitro ADME. The conditions noted are these: liver microsomes, 1 mg/mL protein, 37° C., read-out: T1/2 in rat liver microsome. The method, then:
as §1
On the technique in general: Liver microsomes are a subcellular fraction often used to study metabolism.

The nature of series [4]: In vivo pharmacokinetic study in mice. The conditions noted are these: mouse, plasma; for bioavailability: 1 mg/kg Po (fasted) vs 1 mg/kg Iv; for AUC(0-t) / Cmax: 1 mg/kg. The source says:
[…] After administration, plasma of mice was collected at specific time points, and the concentration of the compound in the plasma was detected by LC-MS/MS (AB SCIEX Qtrap4500). The PK parameters of the compounds were statistically analyzed and calculated (WinNonlin V5.2, Pharsight) to show the pharmacokinetic properties of the compounds disclosed herein in mice.

Series [5] is described as follows: In vitro metabolic stability, guinea pig liver microsome incubation. Type of series: in vitro ADME. The conditions noted are these: liver microsomes, 1 mg/mL protein, 37° C., read-out: T1/2 in guinea pig liver microsome. As for the experimental part: as §1

Usually IC50 stands for the concentration needed to halve the response being measured. The low end stands for greater potency, the high end for weaker potency. The term CC50 denotes the concentration that lowers cell viability or growth by half. Lower therefore signals harm at low concentration. As a reminder, the bioavailability is dose-corrected exposure relative to a reference, in per cent. Read a high bioavailability as much systemic uptake. The term AUC(0-t) denotes the area under the concentration-time curve up to a stated or last time point. Broadly, the Cmax is the peak of the concentration-time curve. On to `Cn1c(C(=O)N2CC(F)(F)C2)cc2c1CN(c1nccc(Nc3ccc(-c4cn[nH]c4)cc3)n1)CC2` [Compound L005, (6-(4-((4-(1H-pyrazol-4-yl)phenyl)amino)pyrimidin-2-yl)-1-methyl-4,5,6,7-tetrahydro-1H-pyrrolo[2,3-c]pyridin-2-yl)(3,3-difluoroazetidin-1-yl)methanone], for which the half-life in series [1] stood at 2.92 h; in series [3] it was 1.72 h; in series [5], 1.08 h. Besides, the IC50 against ROCK1 kinase was more than 4.5 µM; at ROCK2 kinase, not above 0.05 µM. In series [2], this molecule registered a CC50 at 48 h of more than 100 µM. Also, the bioavailability in series [4] was 59.7%. Moreover, the AUC(0-t) in series [4] (Iv) amounted to 120 ng·h/mL; in series [4] (Po (fasted)) it was 71.8 ng·h/mL. The Cmax in series [4] (Iv) stood at 155 ng/mL; in series [4] (Po (fasted)), 37.2 ng/mL.
Regarding `Cn1c(C(=O)NCC(F)(F)F)cc2c1CN(c1nccc(Nc3ccc(-c4cn[nH]c4)cc3)n1)CC2` [Compound L017, 6-(4-((4-(1H-pyrazol-4-yl)phenyl)amino)pyrimidin-2-yl)-1-methyl-N-(2,2,2-trifluoroethyl)-4,5,6,7-tetrahydro-1H-pyrrolo[2,3-c]pyridine-2-carboxamide], the half-life in series [1] amounted to 3.11 h; in series [3], 1.21 h; in series [5], 0.751 h. In addition, the IC50 at ROCK1 kinase was more than 4.5 µM; against ROCK2 kinase, not above 0.05 µM. This molecule yielded a CC50 at 48 h in series [2] of 33.4 µM. Besides, the bioavailability in series [4] was 12.2%. Moreover, the AUC(0-t) in series [4] (Iv) is 872 ng·h/mL; in series [4] (Po (fasted)), 106 ng·h/mL. Further, the Cmax was 2570 ng/mL in series [4] (Iv) and 41.3 ng/mL in series [4] (Po (fasted)).
On to `Cn1c(C(=O)N2CC(F)(F)C2)cc2c1CN(c1ncc(F)c(Nc3ccc(-c4cn[nH]c4)cc3)n1)CC2` [Compound L027, (6-(4-((4-(1H-pyrazol-4-yl)phenyl)amino)-5-fluoropyrimidin-2-yl)-1-methyl-4,5,6,7-tetrahydro-1H-pyrrolo[2,3-c]pyridin-2-yl)(3,3-difluoroazetidin-1-yl)methanone], for which the half-life turned out to be 0.956 h in series [1], 2.11 h in series [3] and 10.3 h in series [5]. Moreover, the IC50 on ROCK1 kinase is more than 4.5 µM; at ROCK2 kinase, not above 0.05 µM. In series [2], this molecule registered a CC50 at 48 h of more than 100 µM. The molecule further returned a bioavailability in series [4] of 82.7%. The AUC(0-t) stood at 412 ng·h/mL in series [4] (Iv) and 341 ng·h/mL in series [4] (Po (fasted)). Further, the Cmax in series [4] (Iv) is 517 ng/mL; in series [4] (Po (fasted)), 116 ng/mL.
For the molecule `Cn1c(C(=O)N2CC(F)(F)C2)cc2c1CN(c1nc(F)cc(Nc3ccc(-c4cn[nH]c4)cc3)n1)CC2` [Compound L030, (6-(4-((4-(1H-pyrazol-4-yl)phenyl)amino)-6-fluoropyrimidin-2-yl)-1-methyl-4,5,6,7-tetrahydro-1H-pyrrolo[2,3-c]pyridin-2-yl)(3,3-difluoroazetidin-1-yl)methanone], the figures for the half-life in series [1], in series [3] and in series [5] were 3.46 h, 2.64 h and 0.969 h, respectively. Besides, the IC50 at ROCK1 kinase was more than 4.5 µM; against ROCK2 kinase it was 0.05 to 0.5 µM. This molecule also returned a CC50 at 48 h in series [2] of more than 100 µM. In series [4], this molecule had a bioavailability of 30.6%. Moreover, the AUC(0-t) came to 726 ng·h/mL in series [4] (Iv) and 225 ng·h/mL in series [4] (Po (fasted)). Further, the results for the Cmax in series [4] (Iv) and in series [4] (Po (fasted)) were 1120 ng/mL and 60 ng/mL, respectively.
Consider `Cn1c(C(=O)N2CC(F)(F)C2)cc2c1CN(c1ncnc(Nc3ccc(-c4cn[nH]c4)cc3)n1)CC2` [Compound L036, (6-(4-((4-(1H-pyrazol-4-yl)phenyl)amino)-1,3,5-triazin-2-yl)-1-methyl-4,5,6,7-tetrahydro-1H-pyrrolo(2,3-c)pyridin-2-yl)(3,3-difluoroazetidin-1-yl)methanone], for which the half-life is 2.97 h in series [1], 1.57 h in series [3] and 1.25 h in series [5]. The figures for the IC50 against ROCK1 kinase and against ROCK2 kinase were more than 4.5 µM and 0.05 to 0.5 µM, respectively. The CC50 at 48 h in series [2] was more than 100 µM. Besides, in series [4], the bioavailability was 59.9%. Moreover, the exposure AUC(0-t) in series [4] (Iv) amounted to 349 ng·h/mL; in series [4] (Po (fasted)), 209 ng·h/mL. For the same molecule, the values for the Cmax in series [4] (Iv) and in series [4] (Po (fasted)) were 473 ng/mL and 98.7 ng/mL, respectively.
Turning to `Cn1c(C(=O)N2CC(C(F)F)C2)cc2c1CN(c1nccc(Nc3ccc(-c4cn[nH]c4)cc3)n1)CC2` [Compound L060, (6-(4-((4-(1H-pyrazol-4-yl)phenyl)amino)pyrimidin-2-yl)-1-methyl-4,5,6,7-tetrahydro-1H-pyrrolo[2,3-c]pyridin-2-yl)(3-(difluoromethyl)azetidin-1-yl)methanone], the half-life in series [1] was 1.59 h; in series [3], 1.16 h; in series [5] it was 0.969 h. Moreover, the concentration for half-maximal inhibition (IC50) was more than 4.5 µM against ROCK1 kinase and not above 0.05 µM against ROCK2 kinase. Further, the CC50 at 48 h in series [2] is more than 100 µM. The molecule also returned a bioavailability in series [4] of 54%. The AUC(0-t) in series [4] (Iv) was determined as 266 ng·h/mL; in series [4] (Po (fasted)) it was 144 ng·h/mL. In addition, the Cmax in series [4] (Iv) was determined as 463 ng/mL; in series [4] (Po (fasted)) it was 64.5 ng/mL.
